Results taken from ChEMBL document CHEMBL1201862, “PubChem BioAssay data set” (2004).
Calls of active or inactive are those of the source.

Key:
[1] = molecular target: Acyl-homoserine lactone acylase PvdQ (Pseudomonas aeruginosa (strain LESB58), UniProt Q9I194); assay: PvdQ acylase enzyme activity blockers – biochemical, fluorescence, plate reader and imaging, cherry-picks, dose response (AID 493231)
[2] = HIV-1 AD8 envelope cell-cell fusion blockers – cherry-pick, dose response (AID 652062); assay type: functional, cell-based;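 note: luciferase signal from cell-cell fusion driven by HIV-1 clade B AD8 Env; potency is for inhibitors of fusion seen as a drop in luminescence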
[3] = ADP-Glo luciferase signal interference – biochemical, luminescence, cherry-picked samples, set 2, artefact control for CDK5 inhibitor project, dose response (AID 504546); assay type: functional, cell-based
[4] = blockers of HIV-1 ZM109 envelope-driven cell-cell fusion – HeLa effector, CEM target cells, luciferase, cherry-pick, dose response (AID 652058); assay type: functional, cell-based;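 note: luciferase signal from HIV-1 Env mediated cell-cell fusion of effector and target cells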
[5] = viability loss in CEM21 cells – cell-based, CellTiter-Glo luminescence, cherry-picked, cytotoxicity control for viral fusion inhibitor project, dose response (AID 652042); assay type: functional;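 note: potency for signal decrease meaning cytotoxicity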
[6] = blockers of HIV-1 envelope-mediated cell-cell fusion – cherry-pick, dose response (AID 652057); assay type: functional, cell-based
[7] = off-target signal loss in HeLa-CEM21 co-culture – HeLa F-luc CTL cells, cherry-picked, counter-screen for HIV-1 Env fusion inhibitor project, dose response (AID 652040); assay type: functional, cell-based;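 note: potency for signal decrease marking cytotoxic or nonspecific inhibition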
[8] = general cell-killing toxicity readout – plate reader, dry powder samples, cytotoxicity control for PAX8 inhibitor project, dose response (AID 743021); assay type: functional, cell-based
[9] = Luminescence Cell-Based Dose Confirmation HTS to Identify Inhibitors of Platelet Dense Granule Release. [Related pubchem assays: 1663 (Primary HTS), 1678 (Summary of Project)]; assay type: functional
[10] = HPDE-C7 pancreatic duct cell viability loss – fluorescence, HTS (AID 430); assay type: functional, cell-based; details: Homo sapiens
[11] = molecular target: Neurotensin receptor type 1 (Homo sapiens, UniProt P30989); assay type: functional;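 note: Image-based confirmatory dose-response assay measuring agonist activity at NTR1; NTR1-expressing U2OS osteosarcoma cells imaged for beta-arrestin GFP spot formation; agonist potency where compounds increase beta-arrestin recruitment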
[12] = viability loss of HPDE-C7K cells – cell-based, fluorescence, HTS, primary screen (AID 431); assay type: functional; details: Homo sapiens
Cytochrome P450 2C9 = Cytochrome P450 2C9 (Homo sapiens, UniProt P11712); details: Potency
Cytochrome P450 2D6 = Cytochrome P450 2D6 (Homo sapiens, UniProt P10635); assay: qHTS Assay for Inhibitors and Substrates of Cytochrome P450 2D6. [Related pubchem assays: 410 ]; assay type: ADME; details: read-out: Potency
[13] = molecular target: Transitional endoplasmic reticulum ATPase (Homo sapiens, UniProt P55072); assay: p97 ATPase inhibitors, dose response, biochemical (AID 1534)
[14] = IC50 of Artemis nuclease activity blockers – biochemical, fluorescence intensity, dose response (AID 720701); assay type: functional;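 note: Artemis endonuclease enzyme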
Streptokinase A = molecular target: T1, Streptokinase A (Streptococcus pyogenes serotype M1, UniProt P10520); assay: viability-normalized secreted streptokinase activity reduction – plasminogen activation absorbance, OD405, dose response (AID 1914); assay type: functional, Streptococcus pyogenes M1 GAS;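 note: secreted streptokinase activity via plasminogen activation per viability signal from cell pellet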
T1 sequence (P10520 whole entry): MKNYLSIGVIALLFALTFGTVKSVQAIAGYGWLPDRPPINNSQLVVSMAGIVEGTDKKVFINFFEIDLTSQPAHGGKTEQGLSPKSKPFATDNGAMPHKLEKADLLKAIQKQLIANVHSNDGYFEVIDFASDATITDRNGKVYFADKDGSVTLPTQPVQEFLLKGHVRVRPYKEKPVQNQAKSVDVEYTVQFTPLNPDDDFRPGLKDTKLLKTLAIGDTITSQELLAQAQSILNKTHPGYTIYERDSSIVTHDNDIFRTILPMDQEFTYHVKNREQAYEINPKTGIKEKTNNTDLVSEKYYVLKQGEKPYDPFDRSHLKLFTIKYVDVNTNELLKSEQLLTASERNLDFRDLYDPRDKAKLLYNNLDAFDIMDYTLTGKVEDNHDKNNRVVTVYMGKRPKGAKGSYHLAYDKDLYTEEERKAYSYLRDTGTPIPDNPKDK

[15] = molecular target: Transitional endoplasmic reticulum ATPase (Homo sapiens, UniProt P55072, C522A); assay: C522A mutant p97 ATPase inhibitors, dose response, counter-screen for p97 inhibitor project, biochemical, luminescence (AID 1544)
Nonstructural protein 1 = Nonstructural protein 1 (Influenza A virus, UniProt Q194T2); assay type: functional, Influenza A virus (A/California/07/2009(H1N1))
[16] = molecular target: FAD-linked sulfhydryl oxidase ALR (Homo sapiens, UniProt P55789); assay: ALR-catalysed DTT oxidation blockers – biochemical, H2O2 detection, luminescence, cherry-pick, dose response (AID 493248)
[17] = tested on: Streptococcus sp. 'group A'; assay: Streptococcus pyogenes SK(-)GAS viability under kanamycin – luminescence, BacTiterGlo, confirmation, counter-screen for streptokinase expression inhibitor project, dose response (AID 1900); assay type: functional, organism-based
Streptococcus = assay: GAS UMAA2166 growth inhibition – luminescence, BacTiterGlo, counter-screen for streptokinase expression inhibitor project, dose response (AID 1915); assay type: functional, organism-based;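 note: potency for reduction of bacterial viability or growth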
[18] = molecular target: T2, Eukaryotic translation initiation factor 2-alpha kinase 3 (Homo sapiens, UniProt Q9NZJ5); assay: Counterscreen assay for PERK inhibitors: Dose response cell-based high throughput screening assay to measure inhibition of PERK at 6 hours. [Related pubchem assays: 1522, 1416 ]; assay type: functional
[19] = molecular target: T2, Eukaryotic translation initiation factor 2-alpha kinase 3; assay: Dose response cell-based high-throughput screening assay to measure PERK inhibition. [Related pubchem assays: 1416 ]; assay type: functional
[20] = molecular target: T3, Alkaline phosphatase, tissue-nonspecific isozyme (Homo sapiens, UniProt P05186)
T3 sequence (P05186 whole entry): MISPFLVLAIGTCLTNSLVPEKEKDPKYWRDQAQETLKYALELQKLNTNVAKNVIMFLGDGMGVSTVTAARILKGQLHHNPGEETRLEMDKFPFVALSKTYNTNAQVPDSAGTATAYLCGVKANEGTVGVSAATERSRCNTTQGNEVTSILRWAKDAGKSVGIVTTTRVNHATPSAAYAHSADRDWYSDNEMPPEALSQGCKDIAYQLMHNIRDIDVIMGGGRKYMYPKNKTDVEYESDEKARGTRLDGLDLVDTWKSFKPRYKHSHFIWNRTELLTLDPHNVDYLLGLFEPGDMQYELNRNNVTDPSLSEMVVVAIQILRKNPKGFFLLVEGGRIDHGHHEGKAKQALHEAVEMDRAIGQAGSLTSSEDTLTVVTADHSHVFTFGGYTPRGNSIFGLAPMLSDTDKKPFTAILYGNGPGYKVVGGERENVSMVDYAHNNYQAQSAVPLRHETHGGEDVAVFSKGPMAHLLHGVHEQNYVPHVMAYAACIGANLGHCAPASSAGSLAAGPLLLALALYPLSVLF

## Cc1cc(C)nc(N(C#N)Cc2cccc([N+](=O)[O-])c2)n1
[1]
  AC50: 4.72 µM (active)

## COc1ccc(C(=O)O/N=C(\N)c2ccccn2)cc1
[2]
  AC50: 11.9 µM (active)
[3]
  AC50: 19.8 µM (active)
[4]
  AC50: 19.4 µM (active)
[5]
  AC50: 21.6 µM (active)
[6]
  AC50: 2.26 µM (active)
[7]
  AC50: 7.65 µM (active)
[8]
  AC50: 30 µM (active)
[9]
  EC50: 0.962 µM (active)

## Cc1sc(NC(=O)c2ccco2)nc1-c1ccc2c(c1)CC(C)N2C(=O)C1CC1 (stereo not given)
[10]
  EC50: 7.02 µM (active)
[11]
  EC50: 30.2 µM (inactive)
[12]
  EC50: 7.22 µM (active)

## Clc1nc(NCCc2ccccc2)c2ncn(-c3ccccc3)c2n1
Cytochrome P450 2C9
  AC50: 7.94 µM (inconclusive)
Cytochrome P450 2D6
  AC50: 3.98 µM (inconclusive)

## O=C(NNc1c2ccccc2nc2ccccc12)c1ccc(O)cc1O
[13]
  IC50: > 50 µM (not active)
[14]
  IC50: 13.3 µM (active)
Streptokinase A
  EC50: > 150 µM (not active)
[15]
  IC50: > 50 µM (not active)
Nonstructural protein 1
  IC50: 32.1 µM (active)
[16]
  AC50: 0.062 µM (active)
[17]
  EC50: 2.59 µM (active)
Streptococcus
  EC50: 23.7 µM (active)

## Cc1nsc(N)c1C(=O)O
[18]
  EC50: > 55.7 µM (not active)
[19]
  EC50: > 55.7 µM (not active)

## COc1ccccc1CNC(=O)C1(NC(=O)Nc2ccc(C)cc2)CCCCC1
[20]
  EC50: 37.3 µM (active)
